Source: patent USRE49873E1, “APP specific bace inhibitors (ASBIs) and uses thereof” (BUCK INSTITUTE FOR RESEARCH ON AGING, priority 2012, dated 2024)

Target: T1, TRX-eAPP575-624 (Homo sapiens, UniProt P05067)
T1 construct: thioredoxin (TRX) and residues 575-624 of the ectodomain; made in house
Assay: Surface plasmon resonance binding to APP ectodomain fragments
Details: FIG. 5B
Method: Three fusion proteins were immobilized via amine coupling using 20 mM phosphate, 125 mM sodium chloride pH 7.4. The three proteins were MBP-eAPP230-624—a fusion protein containing maltose binding protein (MBP) and residues 230624 of the ectodomain of APP (90-kDa) (FC4), eAPP230-624—a protein that contains only residues 230-624 (45-kDa)(FC2), and TRX-eAPP575-624—a fusion protein containing thioredoxin (TRX) and residues 575-624 of the ectodomain (20 -kDa) (FC3). The proteins were produced as described in Libeu, et al. (2011) J. Alzheimers Dis., 25(3): 547-566 Libeu et al (2011). The flow cell FC1 was used as a control. Galangin was diluted from 10 mM solutions in DMSO to 50 μM in 1% DMSO, 20 mM sodium phosphate pH 7.4, 125 mM sodium chloride, 0.05% Tween and then serially diluted by 1.5 for 10 steps. Binding traces were recorded for each dilution with a binding phase of 60 seconds and a dissociation phase of 240 seconds. Each cycle was performed at 20° C. with a constant flow rate of 20 μl/min. […]
The binding affinity of the compounds for the ectodomain of APP was determined using SPR. […] Galangin at various concentrations were used in the flow through over the chip and the plasmon resonance signal was determined using a Biacore T100 (FIG. 5B).

T1 sequence (P05067 650-699): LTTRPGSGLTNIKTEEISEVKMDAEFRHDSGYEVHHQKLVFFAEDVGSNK

Structure (SMILES): O=c1c(O)c(-c2ccccc2)oc2cc(O)cc(O)c12 [Galangin]
- binding to APP by SPR: demonstrated binding to the APP substrate
